Measured values taken from patent US20220186063A1, “BEVERAGE STRAW COATED WITH AN ACTIVE COMPOUND AND METHOD OF MANUFACTURING” (priority 2020, published 2022).

Assay: Release of THC from straw coating as water is drawn through the straw (Example 5)
Assay type: physicochemical
Details: after 220 ml of water passes through the straw over 30 minutes; composite of six straws
Experimental: A study was performed to determine how long it takes for […] to be released from the coating as a liquid is drawn through the coated straw, and to determine how much liquid is required to achieve the full dose of the active ingredient.
The volume of dispersion required to achieve a 10 mg dose of THC was calculated. A pipette was calibrated to ensure that it dispenses the correct amount of dispersion to achieve the desired dose, and then it was loaded with the appropriate amount of the dispersion.
The calculated amount of dispersion was injected using the pipette into PFTA sugarcane straws. The dispersion was allowed to gradually coat the inside of each straw by arranging them vertically. Care was taken to not allow the dispersion to come out of the bottom of the straws.
Straws were dried by taping them horizontally to a tray using food-grade mylar and placing the tray into a convection oven at 55° C. for approximately 60 minutes or until dispersion was visibly dry. Straws were checked every 30 minutes. Once the straws were dry, they were removed from the oven and allowed to cool.
For each straw, a syringe was affixed to the end of a prepared coated straw. The opposing end of the straw was placed in a beaker of deionized water. […]

## CCCCCc1cc(O)c2c(c1)OC(C)(C)[C@@H]1CCC(C)=C[C@@H]21 [THC, (6aR,10aR)-6,6,9-trimethyl-3-pentyl-6a,7,8,10a-tetrahydro-6H-benzo[c]chromen-1-ol]
  THC released from the coating: approximately 60%
